Results as given in US20140323418A1, “SELECTIVE KINASE INHIBITORS” (PORTOLA PHARMACEUTICALS, INC., priority 2011, published 2014).
pIC50: −log10 of the molar value.

Molecular target: T1, full length active recombinant SYK enzyme (Homo sapiens, UniProt P43405)
T1 construct: full length active recombinant SYK enzyme (Millipore, Calif.); purchased Millipore
Assay: Inhibition of Syk tyrosine phosphorylation activity (LANCE TR-FRET kinase assay)
Format: biochemical
Details: 1 nM SYK, 550 nM substrate, 100 μM ATP, 1 hour room temperature

Row | pIC50 | Compound
1 | 8.00 to 9.00 | CCn1ccc2c(Nc3nc(NC[C@@H](N)CC(F)F)ncc3C(N)=O)cccc21 [Example 76, (S)-2-(2-amino-4,4-difluorobutylamino)-4-(1-ethyl-1H-indol-4-ylamino)pyrimidine-5-carboxamide]
2 | 7.00 to 8.00 | Cc1cccc(Nc2nc(NC[C@@H](N)CC(F)F)ncc2C(N)=O)c1 [Example 78, (S)-4-(m-toluidino)-2-(2-amino-4,4-difluorobutylamino)pyrimidine-5-carboxamide]
3 | 6.00 to 7.00 | N#Cc1cccc(Nc2nc(NC[C@@H](N)CC(F)F)ncc2C(N)=O)c1 [Example 82, (S)-2-(2-amino-4,4-difluorobutylamino)-4-(3-cyanophenylamino)pyrimidine-5-carboxamide]
4 | 6.00 to 7.00 | Cc1ccc(Nc2nc(NC[C@@H](N)CC(F)F)ncc2C(N)=O)cc1 [Example 83, (S)-4-(p-toluidino)-2-(2-amino-4,4-difluorobutylamino)pyrimidine-5-carboxamide]
5 | 8.00 to 9.00 | NC(=O)c1cnc(NC[C@@H](N)CC(F)F)nc1Nc1cccc2c1ccn2CC(F)(F)F [Example 84, (S)-2-(2-amino-4,4-difluorobutylamino)-4-(1-(2,2,2-trifluoroethyl)-1H-indol-4-ylamino)pyrimidine-5-carboxamide]
6 | 8.00 to 9.00 | Cn1ccc2c(Nc3nc(NC[C@@H](N)CC(F)F)ncc3C(N)=O)cccc21 [Example 85, (S)-2-(2-amino-4,4-difluorobutylamino)-4-(1-methyl-1H-indol-4-ylamino)pyrimidine-5-carboxamide]
7 | 7.00 to 8.00 | Cn1ccc2c(Nc3nc(NC[C@@H](N)CC(F)F)ncc3C(N)=O)ccc(F)c21 [Example 86, (S)-2-(2-amino-4,4-difluorobutylamino)-4-(7-fluoro-1-methyl-1H-indol-4-ylamino)pyrimidine-5-carboxamide]
8 | 7.00 to 8.00 | Cc1cc2c(Nc3nc(NC[C@@H](N)CC(F)F)ncc3C(N)=O)cccc2n1C [Example 87, (S)-2-(2-amino-4,4-difluorobutylamino)-4-(1,2-dimethyl-1H-indol-4-ylamino)pyrimidine-5-carboxamide]
9 | 7.00 to 8.00 | Cc1cccc(Nc2nc(N[C@@H](CN)CC(F)F)ncc2C(N)=O)c1 [Example 89, (R)-4-(m-toluidino)-2-(1-amino-4,4-difluorobutan-2-ylamino)pyrimidine-5-carboxamide]
10 | 8.00 to 9.00 | Cn1ccc2c(Nc3nc(NC[C@@H](N)CC(F)F)ncc3C(N)=O)ccnc21 [Example 94, (S)-2-(2-amino-4,4-difluorobutylamino)-4-(1-methyl-1H-pyrrolo[2,3-b]pyridin-4-ylamino)pyrimidine-5-carboxamide]
11 | 6.00 to 7.00 | NC(=O)c1cnc(NC[C@@H](N)CC(F)F)nc1Nc1cccc(-c2ncccn2)c1 [Example 95, (S)-2-(2-amino-4,4-difluorobutylamino)-4-(3-(pyrimidin-2-yl)phenylamino)pyrimidine-5-carboxamide]
12 | 7.00 to 8.00 | NC(=O)c1cnc(NC[C@@H](N)CC(F)F)nc1Nc1cccc2c1CCN2CC(F)(F)F [Example 97]
13 | 7.00 to 8.00 | CN1CCc2c(Nc3nc(NC[C@@H](N)CC(F)F)ncc3C(N)=O)cccc21 [Example 98, (S)-2-(2-amino-4,4-difluorobutylamino)-4-(1-methylindolin-4-ylamino)pyrimidine-5-carboxamide]
14 | 7.00 to 8.00 | CCN1CCc2c(Nc3nc(N[C@@H](CN)C4CC4)ncc3C(N)=O)cccc21 [Example 99, (R)-2-(2-amino-1-cyclopropylethylamino)-4-(1-ethylindolin-4-ylamino)pyrimidine-5-carboxamide]
15 | 7.00 to 8.00 | Cn1ccc2c(Nc3nc(NCC(N)C(C)(F)F)ncc3C(N)=O)cccc21 (centres unmarked) [Example 104, 2-(2-amino-3,3-difluorobutylamino)-4-(1-methyl-1H-indol-4-ylamino)pyrimidine-5-carboxamide]

Continued, compound first:

Row | Compound | pIC50
16 | CC[C@@H](Nc1ncc(C(N)=O)c(Nc2ccc3ccncc3c2)n1)C(N)=O [Example 71, (R)-2-(1-amino-1-oxobutan-2-ylamino)-4-(isoquinolin-7-ylamino)pyrimidine-5-carboxamide] | 7.00 to 8.00
17 | NC(=O)c1cnc(N[C@@H]2CCCC[C@@H]2N)nc1Nc1ccc2ccncc2c1 [Example 73, 2-((1R,2S)-2-aminocyclohexylamino)-4-(isoquinolin-7-ylamino)pyrimidine-5-carboxamide] | 7.00 to 8.00
18 | NC(=O)c1cnc(N[C@H](CC2CC2)C(N)=O)nc1Nc1cnc2ccccc2c1 [Example 74, (R)-2-(1-amino-3-cyclopropyl-1-oxopropan-2-ylamino)-4-(quinolin-3-ylamino)pyrimidine-5-carboxamide] | 7.00 to 8.00
19 | NC(=O)c1cnc(N[C@@H]2CCCC[C@@H]2N)nc1Nc1ccc2cccnc2c1 [Example 75, 2-((1R,2S)-2-aminocyclohexylamino)-4-(quinolin-7-ylamino)pyrimidine-5-carboxamide] | 7.00 to 8.00
20 | CC(C)[C@@H](Nc1ncc(C(N)=O)c(Nc2ccc3cccnc3c2)n1)C(N)=O [Example 77, (R)-2-(1-amino-3-methyl-1-oxobutan-2-ylamino)-4-(quinolin-7-ylamino)pyrimidine-5-carboxamide] | 6.00 to 7.00
21 | CCn1ccc2c(Nc3nc(N[C@@H](CN)C4CC4)ncc3C(N)=O)cccc21 [Example 88, (R)-2-(2-amino-1-cyclopropylethylamino)-4-(1-ethyl-1H-indol-4-ylamino)pyrimidine-5-carboxamide] | 8.00 to 9.00
22 | Cn1ccc2c(Nc3nc(N[C@@H]4CCCC(F)(F)[C@@H]4N)ncc3C(N)=O)cccc21 [Example 91, 2-((1R,2R)-2-amino-3,3-difluorocyclohexylamino)-4-(1-methyl-1H-indol-4-ylamino)pyrimidine-5-carboxamide] | 7.00 to 8.00
23 | CCn1ccc2c(Nc3nc(N[C@@H]4CCCC(F)(F)[C@@H]4N)ncc3C(N)=O)cccc21 [Example 92, 2-((1R,2R)-2-amino-3,3-difluorocyclohexylamino)-4-(1-ethyl-1H-indol-4-ylamino)pyrimidine-5-carboxamide] | 7.00 to 8.00
24 | NC(=O)c1cnc(N[C@@H]2CCCC(F)(F)[C@@H]2N)nc1Nc1cccc2c1ccn2CC(F)(F)F [Example 93, 2-((1R,2R)-2-amino-3,3-difluorocyclohexylamino)-4-(1-(2,2,2-trifluoroethyl)-1H-indol-4-ylamino)pyrimidine-5-carboxamide] | 7.00 to 8.00
25 | CN1C(=O)Cc2c(Nc3nc(N[C@@H]4CCCC[C@@H]4N)ncc3C(N)=O)cccc21 [Example 96, 2-((1R,2S)-2-aminocyclohexylamino)-4-(1-methyl-2-oxoindolin-4-ylamino)pyrimidine-5-carboxamide] | 6.00 to 7.00
26 | CCc1c(C)c2c(Nc3nc(N[C@@H]4CCCC[C@@H]4N)ncc3C(N)=O)cccc2n1C [Example 100, 2-((1R,2S)-2-aminocyclohexylamino)-4-(2-ethyl-1,3-dimethyl-1H-indol-4-ylamino)pyrimidine-5-carboxamide] | 6.00 to 7.00
27 | CCc1c(C)n(C)c2cccc(Nc3nc(N[C@@H]4CCCC[C@@H]4N)ncc3C(N)=O)c12 [Example 101, 2-((1R,2S)-2-aminocyclohexylamino)-4-(3-ethyl-1,2-dimethyl-1H-indol-4-ylamino)pyrimidine-5-carboxamide] | 6.00 to 7.00
28 | CCCc1cc2c(Nc3nc(N[C@@H]4CCCC[C@@H]4N)ncc3C(N)=O)cccc2n1C [Example 102, 2-((1R,2S)-2-aminocyclohexylamino)-4-(1-methyl-2-propyl-1H-indol-4-ylamino)pyrimidine-5-carboxamide] | 7.00 to 8.00
29 | Cn1cc(C#N)c2c(Nc3nc(N[C@@H]4CCCC[C@@H]4N)ncc3C(N)=O)cccc21 [Example 103, 2-((1R,2S)-2-aminocyclohexylamino)-4-(3-cyano-1-methyl-1H-indol-4-ylamino)pyrimidine-5-carboxamide] | 6.00 to 7.00
30 | Cc1cccc(Nc2nc(NCC(N)C(C)(F)F)ncc2C(N)=O)c1 (centres unmarked) [Example 105, 4-(m-toluidino)-2-(2-amino-3,3-difluorobutylamino)pyrimidine-5-carboxamide] | 6.00 to 7.00
31 | NC(=O)c1cnc(NCC2(N)CC2)nc1Nc1cccc(-n2cccn2)c1 [Example 106, 4-(3-(1H-pyrazol-1-yl)phenylamino)-2-((1-aminocyclopropyl)methylamino)pyrimidine-5-carboxamide] | 7.00 to 8.00
32 | Cn1ccc2c(Nc3nc(N[C@@H]4CCCC[C@@H]4O)ncc3C(N)=O)cccc21 [Example 107, 2-((1R,2S)-2-hydroxycyclohexylamino)-4-(1-methyl-1H-indol-4-ylamino)pyrimidine-5-carboxamide] | 6.00 to 7.00
33 | Cn1ccc2c(Nc3nc(NC4CCCCC4)ncc3C(N)=O)cccc21 [Example 108, 2-(cyclohexylamino)-4-(1-methyl-1H-indol-4-ylamino)pyrimidine-5-carboxamide] | 6.00 to 7.00
34 | Cn1ccc2c(Nc3nc(NC4(C#N)CC4)ncc3C(N)=O)cccc21 [Example 109, 2-(1-cyanocyclopropylamino)-4-(1-methyl-1H-indol-4-ylamino)pyrimidine-5-carboxamide] | 6.00 to 7.00
35 | C[C@@H](Nc1ncc(C(N)=O)c(Nc2cccc3c2ccn3C)n1)C1CC1 [Example 110, (R)-2-(1-cyclopropylethylamino)-4-(1-methyl-1H-indol-4-ylamino)pyrimidine-5-carboxamide] | 6.00 to 7.00
36 | Cn1ccc2c(Nc3nc(NCC4CCCC4)ncc3C(N)=O)cccc21 [Example 111, 2-(cyclopentylmethylamino)-4-(1-methyl-1H-indol-4-ylamino)pyrimidine-5-carboxamide] | 6.00 to 7.00
37 | Cn1ccc2c(Nc3nc(NCC4CC4)ncc3C(N)=O)cccc21 [Example 112, 2-(cyclopropylmethylamino)-4-(1-methyl-1H-indol-4-ylamino)pyrimidine-5-carboxamide] | 6.00 to 7.00
38 | CCn1ccc2c(Nc3nc(Nc4ccc5c(c4)CC(=O)N5)ncc3C(N)=O)cccc21 [Example 113, 4-(1-ethyl-1H-indol-4-ylamino)-2-(2-oxoindolin-5-ylamino)pyrimidine-5-carboxamide] | 7.00 to 8.00
